Test results reported in patent US20260373248A1, “DEGRADABLE PEPTOIDS” (Medici Therapeutics, Inc., priority 2023, published 2026).
Non-standard residues stand in square brackets, D forms with d. Residues, ends and D or L forms follow the SMILES beside them. *: point of attachment. Gly(N-(3-decanoyloxypropyl)) = CCCCCCCCCC(=O)OCCCNCC(=O)O; N(3-lauroyloxypropyl)Gly = CCCCCCCCCCCC(=O)OCCCNCC(=O)O; N(3-imidazol-1-ylpropyl)Gly = O=C(O)CNCCCn1ccnc1; Gly(N-3-morpholinopropyl) = O=C(O)CNCCCN1CCOCC1; N(2-ethylhexyl)Gly = CCCCC(CC)CNCC(=O)O; N(CH(CH2OH)2)Gly = O=C(O)CNC(CO)CO; N(octyl)Gly = CCCCCCCCNCC(=O)O; NHexGly = CCCCCCNCC(=O)O; For = O=C*

Key:
[1] = Delivery vehicle size and polydispersity by dynamic light scattering; type: physicochemical
In short: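 Dynamic light scattering in PBS gave size and polydispersity of peptoid LNPs. These were dialyzed overnight at 4 °C into tris-sucrose buffer pH 7.4 after microfluidic 1:3 volume mixing of mRNA in pH 5.0 citrate with ethanol lipids (peptoid:DSPC:cholesterol:DMG-PEG2000 20:1.79:7.16:1.84 w/w).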

mRNA = mRNA encapsulation (modified Quant-iT RiboGreen assay); type: physicochemical; conditions: for mean percent encapsulation of RNA: RiboGreen, without vs with Triton X-100; for % Encapsulation: mRNA
In short: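 Encapsulated fraction was calculated by comparing RiboGreen signal (excitation 485 nm, emission 530 nm) of intact particles with that of particles lysed by a 10-min Triton X-100 treatment. Total mRNA concentration was taken from the lysed samples.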

hEPO = experiment: Quantification of hEPO in serum after IV injection of mRNA (Human EPO ELISA); type: in vivo; conditions: Balb/c mice, 2.5 μg mRNA IV, serum after 6 hours
In short: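 Balb/c mice received 2.5 μg mRNA encoding human EPO by IV injection; serum was collected after 6 hours. hEPO was measured by sandwich ELISA (biotin-conjugate, streptavidin-HRP, TMB, A450) against kit standards (mIU/mL) and an external standard (ng/mL), with values interpolated and corrected for dilution.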

luciferase = experiment: Luciferase expression after local (intramuscular or subcutaneous) administration of mRNA; type: in vivo; conditions: mRNA 0.01 mpk, 6 hours; for IM Flux: intramuscular; for SC Flux: subcutaneous
In short: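 Bioluminescence read 6 hours after fLuc mRNA dosing (peptoid Nutshells; 0.01 mpk S.C. or I.M., 0.1 mpk intratumoral) in female Balb/c mice aged 6-8 weeks. D-luciferin injected IP, whole-body imaging after 10 minutes, then organ imaging; total photon flux per region of interest.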

firefly luciferase = experiment: In vivo firefly luciferase expression after intravenous injection of fLuc mRNA delivery vehicles (IVIS imaging); design: species or system female Balb/c mice; conditions: for Total Flux: mice, 2.5 ug fLuc mRNA intravenously, 6 hours post-injection; for Total Flux (luciferase expression): fLuc mRNA, intravenous, Balb/c mice
In short: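 Read-out is total photon flux per region of interest, from whole-body IVIS images taken 10 minutes after IP D-luciferin (30 mg/mL, 10 μL/g) and from excised organs. Female Balb/c mice aged 6-8 weeks received 2.5 ug fLuc mRNA Nutshells intravenously 6 hours before imaging.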

[2] = Peptoid quantity remaining in liver by HPLC-TOF mass spectrometry; type: in vivo; conditions: liver homogenate
In short: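 Whole liver weighed; 20 mg tissue bead-homogenized in IPA/MeOH (8/2) with internal standard, centrifuged, supernatant run on BEH C8 HPLC-TOF MS. Peptoid concentration derived from linear calibration curve (0.2-50 μg/g) prepared in spiked untreated liver.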

[3] = DLS in PBS, peptoid:DSPC:Cholesterol:DMG-PEG2000 weight ratio 20:1.79:7.16:1.84, mRNA

Compound: CCCCCCCCCC(=O)OCCCN(CC(=O)N(CC(=O)N(CC(=O)N(CCCOC(=O)CCCCCCCCC)CC(=O)N(CC(N)=O)CC(CC)CCCC)CC(CC)CCCC)CC(CC)CCCC)C(=O)CN(CC(CC)CCCC)C(=O)CN(C=O)CCCN1CCOCC1 (stereo not drawn) [Compound 106] (For-[Gly(N-3-morpholinopropyl)][N(2-ethylhexyl)Gly][Gly(N-(3-decanoyloxypropyl))][N(2-ethylhexyl)Gly][N(2-ethylhexyl)Gly][Gly(N-(3-decanoyloxypropyl))][N(2-ethylhexyl)Gly]-NH2)
- PDI [1, 3]: 0.155
- Particle Size [1, 3]: 91.5 nm
- mean percent encapsulation of RNA (mRNA): 80.0%
- hEPO (hEPO): 471 ng/mL
- IM Flux (luciferase): 1.07E+08 p/s
- SC Flux (luciferase): 1.70E+08 p/s
- Total Flux (firefly luciferase): 6.71E+09 p/s
- % of injected dose remaining in liver [2]: 5.86%

Compound: CCCCCCCCCC(=O)OCCCN(CC(=O)N(CC(=O)N(CC(=O)N(CCCOC(=O)CCCCCCCCC)CC(=O)N(CC(N)=O)CC(CC)CCCC)CC(CC)CCCC)CC(CC)CCCC)C(=O)CN(CC(CC)CCCC)C(=O)CNCCCn1ccnc1 (stereo not drawn) [Compound 107] (H-[N(3-imidazol-1-ylpropyl)Gly][N(2-ethylhexyl)Gly][Gly(N-(3-decanoyloxypropyl))][N(2-ethylhexyl)Gly][N(2-ethylhexyl)Gly][Gly(N-(3-decanoyloxypropyl))][N(2-ethylhexyl)Gly]-NH2)
- PDI [1, 3]: 0.140
- Particle Size [1, 3]: 77.4 nm
- mean percent encapsulation of RNA (mRNA): 96.1%
- hEPO (hEPO): 268 ng/mL
- IM Flux (luciferase): 7.22E+07 p/s
- SC Flux (luciferase): 7.41E+07 p/s
- Total Flux (firefly luciferase): 2.01E+09 p/s
- % of injected dose remaining in liver [2]: 47.20%

Compound: CCCCCCCCCC(=O)OCCCN(CC(=O)N(CC(N)=O)CC(CC)CCCC)C(=O)CN(CCCCCCCC)C(=O)CN(CC(CC)CCCC)C(=O)CN(CCCOC(=O)CCCCCCCCC)C(=O)CN(CCCCCCCC)C(=O)CNC(CO)CO (stereo not drawn) [Compound 32] (H-[N(CH(CH2OH)2)Gly][N(octyl)Gly][Gly(N-(3-decanoyloxypropyl))][N(2-ethylhexyl)Gly][N(octyl)Gly][Gly(N-(3-decanoyloxypropyl))][N(2-ethylhexyl)Gly]-NH2)
- PDI [1, 3]: 0.156
- Particle Size [1, 3]: 89.3 nm
- Particle Size ([1]; formulation recipe D22): 89.3 nm
- Particle Size ([1]; formulation recipe R2): 71.0 nm
- Particle Size ([1]; formulation recipe R5): 65.5 nm
- Particle Size ([1]; formulation recipe R6): 68.4 nm
- Particle Size ([1]; formulation recipe R7): 65.1 nm
- Particle Size ([1]; formulation recipe R9): 64.9 nm
- mean percent encapsulation of RNA (mRNA): 59.3%
- % Encapsulation (mRNA; formulation recipe D22): 59.3%
- % Encapsulation (mRNA; formulation recipe R2): 88.2%
- % Encapsulation (mRNA; formulation recipe R5): 86.0%
- % Encapsulation (mRNA; formulation recipe R6): 93.7%
- % Encapsulation (mRNA; formulation recipe R7): 79.1%
- % Encapsulation (mRNA; formulation recipe R9): 92.7%
- hEPO (hEPO): 642 ng/mL
- IM Flux (luciferase): 1.45E+08 p/s
- SC Flux (luciferase): 9.18E+08 p/s
- Total Flux (luciferase expression) (firefly luciferase; formulation recipe D22): 7.45E+09 p/s
- Total Flux (luciferase expression) (firefly luciferase; formulation recipe R2): 7.39E+08 p/s
- Total Flux (luciferase expression) (firefly luciferase; formulation recipe R5): 5.34E+08 p/s
- Total Flux (luciferase expression) (firefly luciferase; formulation recipe R6): 9.19E+08 p/s
- Total Flux (luciferase expression) (firefly luciferase; formulation recipe R7): 1.41E+09 p/s
- Total Flux (luciferase expression) (firefly luciferase; formulation recipe R9): 8.16E+08 p/s
- Total Flux (firefly luciferase): 7.45E+09 p/s
- % of injected dose remaining in liver [2]: 8.18%

Compound: CCCCCCCCCC(=O)OCCCN(C=O)CC(=O)N(CCCOC(=O)CCCCCCCCC)CC(=O)N(CC(=O)N(CCCN1CCOCC1)CC(=O)N(CCCOC(=O)CCCCCCCCC)CC(=O)N(CCCOC(=O)CCCCCCCCC)CC(=O)N(CC(N)=O)CC(CC)CCCC)CC(CC)CCCC (stereo not drawn) [Compound 112] (For-[Gly(N-(3-decanoyloxypropyl))][Gly(N-(3-decanoyloxypropyl))][N(2-ethylhexyl)Gly][Gly(N-3-morpholinopropyl)][Gly(N-(3-decanoyloxypropyl))][Gly(N-(3-decanoyloxypropyl))][N(2-ethylhexyl)Gly]-NH2)
- PDI [1, 3]: 0.138
- Particle Size [1, 3]: 95.4 nm
- Particle Size ([1]; formulation recipe R5): 87.6 nm
- mean percent encapsulation of RNA (mRNA): 39.2%
- % Encapsulation (mRNA; formulation recipe R5): 71.6%
- hEPO (hEPO): 345 ng/mL
- IM Flux (luciferase): 1.80E+08 p/s
- SC Flux (luciferase): 2.33E+08 p/s
- Total Flux (luciferase expression) (firefly luciferase; formulation recipe R5): 2.67E+08 p/s
- Total Flux (firefly luciferase): 1.13E+09 p/s
- % of injected dose remaining in liver [2]: 0.19%

Compound: CCCCCCCCCC(=O)OCCCN(CC(N)=O)C(=O)CN(CC(CC)CCCC)C(=O)CN(CCCOC(=O)CCCCCCCCC)C(=O)CN(CCCOC(=O)CCCCCCCCC)C(=O)CN(CC(CC)CCCC)C(=O)CN(CCCOC(=O)CCCCCCCCC)C(=O)CNC(CO)CO (stereo not drawn) [Compound 53] (H-[N(CH(CH2OH)2)Gly][Gly(N-(3-decanoyloxypropyl))][N(2-ethylhexyl)Gly][Gly(N-(3-decanoyloxypropyl))][Gly(N-(3-decanoyloxypropyl))][N(2-ethylhexyl)Gly][Gly(N-(3-decanoyloxypropyl))]-NH2)
- PDI [1, 3]: 0.153
- Particle Size [1, 3]: 88.5 nm
- mean percent encapsulation of RNA (mRNA): 36.0%
- hEPO (hEPO): 71.6 ng/mL
- IM Flux (luciferase): 5.34E+08 p/s
- SC Flux (luciferase): 2.78E+08 p/s
- Total Flux (firefly luciferase): 4.46E+08 p/s
- % of injected dose remaining in liver [2]: 0.13%

Compound: CCCCCCCCCCCC(=O)OCCCN(CC(=O)N(CC(N)=O)CC(CC)CCCC)C(=O)CN(CCCCCC)C(=O)CN(CC(CC)CCCC)C(=O)CN(CCCOC(=O)CCCCCCCCCCC)C(=O)CN(CCCCCC)C(=O)CNC(CO)CO (stereo not drawn) [Compound 54] (H-[N(CH(CH2OH)2)Gly][NHexGly][N(3-lauroyloxypropyl)Gly][N(2-ethylhexyl)Gly][NHexGly][N(3-lauroyloxypropyl)Gly][N(2-ethylhexyl)Gly]-NH2)
- PDI [1, 3]: 0.141
- Particle Size [1, 3]: 126.1 nm
- mean percent encapsulation of RNA (mRNA): 33.5%
- hEPO (hEPO): 37.4 ng/mL
- IM Flux (luciferase): 1.52E+07 p/s
- SC Flux (luciferase): 2.18E+07 p/s
- Total Flux (firefly luciferase): 3.53E+08 p/s
- % of injected dose remaining in liver [2]: 8.64%
